Reference: ChEMBL document CHEMBL3045187, “Chemical weed control in seedbed sown onion (Allium cepa L.)” (Crop Prot, 2006)

Assays:
Malva sylvestris [1] = experiment: Herbicidal activity against Malva sylvestris assessed as total dry weight at 2.45 kg/ha applied as spray before seed sowing (reference value: 4.1 MT/ha); type: functional
Cyperus rotundus [2] = experiment: Herbicidal activity against Cyperus rotundus assessed as total dry weight at 2.45 kg/ha applied as spray before seed sowing (reference value: 4.1 MT/ha); type: functional
Chenopodiastrum murale [3] = experiment: Herbicidal activity against Chenopodium murale assessed as total dry weight at 2.45 kg/ha applied as spray before seed sowing (reference value: 4.1 MT/ha); type: functional
Allium cepa [4] = experiment: Phytotoxicity in Allium cepa (onion) seedling assessed as total fresh weight at 2.45 kg/ha applied as spray before seed sowing (reference value: 7.71 MT/ha); type: organism-based; details: in vivo, other
Cyperus rotundus [5] = experiment: Herbicidal activity against Cyperus rotundus assessed as total fresh weight at 2.45 kg/ha applied as spray before seed sowing (reference value: 23.6 MT/ha); type: functional
Malva sylvestris [6] = experiment: Herbicidal activity against Malva sylvestris assessed as total fresh weight at 2.45 kg/ha applied as spray before seed sowing (reference value: 23.6 MT/ha); type: functional
Chenopodiastrum murale [7] = experiment: Herbicidal activity against Chenopodium murale assessed as total fresh weight at 2.45 kg/ha applied as spray before seed sowing (reference value: 23.6 MT/ha); type: functional
Cyperus rotundus [8] = experiment: Herbicidal activity against Cyperus rotundus assessed as total fresh weight at 0.35 kg/ha applied as spray before seed sowing (reference value: 23.6 MT/ha); type: functional
Chenopodiastrum murale [9] = experiment: Herbicidal activity against Chenopodium murale assessed as total fresh weight at 0.35 kg/ha applied as spray before seed sowing (reference value: 23.6 MT/ha); type: functional
Cyperus rotundus [10] = experiment: Herbicidal activity against Cyperus rotundus assessed as total dry weight at 0.35 kg/ha applied as spray before seed sowing (reference value: 4.1 MT/ha); type: functional
Malva sylvestris [11] = experiment: Herbicidal activity against Malva sylvestris assessed as total dry weight at 0.35 kg/ha applied as spray before seed sowing (reference value: 4.1 MT/ha); type: functional
Chenopodiastrum murale [12] = experiment: Herbicidal activity against Chenopodium murale assessed as total dry weight at 0.35 kg/ha applied as spray before seed sowing (reference value: 4.1 MT/ha); type: functional
Allium cepa [13] = experiment: Phytotoxicity in Allium cepa (onion) seedling assessed as total fresh weight at 0.35 kg/ha applied as spray before seed sowing (reference value: 7.71 MT/ha); type: organism-based; details: in vivo, other
Malva sylvestris [14] = experiment: Herbicidal activity against Malva sylvestris assessed as total fresh weight at 0.35 kg/ha applied as spray before seed sowing (reference value: 23.6 MT/ha); type: functional
Malva sylvestris [15] = experiment: Herbicidal activity against Malva sylvestris assessed as total fresh weight at 0.75 kg/ha applied as spray before seed sowing (reference value: 23.6 MT/ha); type: functional
Cyperus rotundus [16] = experiment: Herbicidal activity against Cyperus rotundus assessed as total fresh weight at 0.75 kg/ha applied as spray before seed sowing (reference value: 23.6 MT/ha); type: functional
Chenopodiastrum murale [17] = experiment: Herbicidal activity against Chenopodium murale assessed as total fresh weight at 0.75 kg/ha applied as spray before seed sowing (reference value: 23.6 MT/ha); type: functional
Cyperus rotundus [18] = experiment: Herbicidal activity against Cyperus rotundus assessed as decrease in total dry weight at 0.75 kg/ha applied as spray during post-emergence relative to weed-infested control; type: functional; design: scale not given: the % may be the effect or the level left
Malva sylvestris [19] = experiment: Herbicidal activity against Malva sylvestris assessed as decrease in total dry weight at 0.75 kg/ha applied as spray during post-emergence relative to weed-infested control; type: functional; design: scale not given: the % may be the effect or the level left
Chenopodiastrum murale [20] = experiment: Herbicidal activity against Chenopodium murale assessed as decrease in total dry weight at 0.75 kg/ha applied as spray during postemergence relative to weed-infested control; type: functional; design: scale not given: the % may be the effect or the level left
Malva sylvestris [21] = experiment: Herbicidal activity against Malva sylvestris assessed as total fresh weight at 0.75 kg/ha applied as spray during post-emergence (reference value: 23.6 MT/ha); type: functional
Cyperus rotundus [22] = experiment: Herbicidal activity against Cyperus rotundus assessed as total fresh weight at 0.75 kg/ha applied as spray during post-emergence (reference value: 23.6 MT/ha); type: functional
Chenopodiastrum murale [23] = experiment: Herbicidal activity against Chenopodium murale assessed as total fresh weight at 0.75 kg/ha applied as spray during postemergence (reference value: 23.6 MT/ha); type: functional
Cyperus rotundus [24] = experiment: Herbicidal activity against Cyperus rotundus assessed as total dry weight at 0.75 kg/ha applied as spray before seed sowing (reference value: 4.1 MT/ha); type: functional
Malva sylvestris [25] = experiment: Herbicidal activity against Malva sylvestris assessed as total dry weight at 0.75 kg/ha applied as spray before seed sowing (reference value: 4.1 MT/ha); type: functional
Chenopodiastrum murale [26] = experiment: Herbicidal activity against Chenopodium murale assessed as total dry weight at 0.75 kg/ha applied as spray before seed sowing (reference value: 4.1 MT/ha); type: functional
Allium cepa [27] = experiment: Phytotoxicity in Allium cepa (onion) seedling assessed as total fresh weight at 0.75 kg/ha applied as spray during post-emergence (reference value: 7.71 MT/ha); type: organism-based; details: in vivo, other
Allium cepa [28] = experiment: Phytotoxicity in Allium cepa (onion) seedling assessed as total fresh weight at 0.75 kg/ha applied as spray before seed sowing (reference value: 7.71 MT/ha); type: organism-based; details: in vivo, other
Chenopodiastrum murale [29] = experiment: Herbicidal activity against Chenopodium murale assessed as total dry weight at 3.75 kg/ha applied as spray before seed sowing (reference value: 4.1 MT/ha); type: functional
Cyperus rotundus [30] = experiment: Herbicidal activity against Cyperus rotundus assessed as total dry weight at 3.75 kg/ha applied as spray before seed sowing (reference value: 4.1 MT/ha); type: functional
Malva sylvestris [31] = experiment: Herbicidal activity against Malva sylvestris assessed as total dry weight at 3.75 kg/ha applied as spray before seed sowing (reference value: 4.1 MT/ha); type: functional
Malva sylvestris [32] = experiment: Herbicidal activity against Malva sylvestris assessed as total fresh weight at 3.75 kg/ha applied as spray before seed sowing (reference value: 23.6 MT/ha); type: functional
Chenopodiastrum murale [33] = experiment: Herbicidal activity against Chenopodium murale assessed as total fresh weight at 3.75 kg/ha applied as spray before seed sowing (reference value: 23.6 MT/ha); type: functional
Allium cepa [34] = experiment: Phytotoxicity in Allium cepa (onion) seedling assessed as total fresh weight at 3.75 kg/ha applied as spray before seed sowing (reference value: 7.71 MT/ha); type: organism-based; details: in vivo, other
Cyperus rotundus [35] = experiment: Herbicidal activity against Cyperus rotundus assessed as total fresh weight at 3.75 kg/ha applied as spray before seed sowing (reference value: 23.6 MT/ha); type: functional
Malva sylvestris [36] = experiment: Herbicidal activity against Malva sylvestris assessed as total dry weight at 7 kg/ha applied as spray before seed sowing (reference value: 4.1 MT/ha); type: functional
Cyperus rotundus [37] = experiment: Herbicidal activity against Cyperus rotundus assessed as total dry weight at 7 kg/ha applied as spray before seed sowing (reference value: 4.1 MT/ha); type: functional
Chenopodiastrum murale [38] = experiment: Herbicidal activity against Chenopodium murale assessed as total dry weight at 7 kg/ha applied as spray before seed sowing (reference value: 4.1 MT/ha); type: functional
Cyperus rotundus [39] = experiment: Herbicidal activity against Cyperus rotundus assessed as total fresh weight at 7 kg/ha applied as spray before seed sowing (reference value: 23.6 MT/ha); type: functional
Malva sylvestris [40] = experiment: Herbicidal activity against Malva sylvestris assessed as total fresh weight at 7 kg/ha applied as spray before seed sowing (reference value: 23.6 MT/ha); type: functional
Chenopodiastrum murale [41] = experiment: Herbicidal activity against Chenopodium murale assessed as total fresh weight at 7 kg/ha applied as spray before seed sowing (reference value: 23.6 MT/ha); type: functional
Allium cepa [42] = experiment: Phytotoxicity in Allium cepa (onion) seedling assessed as total fresh weight at 7 kg/ha applied as spray before seed sowing (reference value: 7.71 MT/ha); type: organism-based; details: in vivo, other

Compound CNC(=O)N(C)c1nc2ccccc2s1 [METHABENZTHIAZURON] has an Activity (Malva sylvestris [1]) of 2.85 MT/ha, an Activity (Cyperus rotundus [2]) of 2.85 MT/ha and an Activity (Chenopodiastrum murale [3]) of 2.85 MT/ha. The Activity (Allium cepa [4]) was 7.18 MT/ha, the Activity (Cyperus rotundus [5]) was 9 MT/ha and the Activity (Malva sylvestris [6]) was 9 MT/ha. The Activity (Chenopodiastrum murale [7]) was 9 MT/ha.

For CSc1nnc(C(C)(C)C)c(=O)n1N [METRIBUZIN], the Activity (Cyperus rotundus [8]) was 17.1 MT/ha, the Activity (Chenopodiastrum murale [9]) was 17.1 MT/ha and the Activity (Cyperus rotundus [10]) was 3.32 MT/ha. The Activity (Malva sylvestris [11]) was 3.32 MT/ha, the Activity (Chenopodiastrum murale [12]) was 3.32 MT/ha and the Activity (Allium cepa [13]) was 7.64 MT/ha. For the same compound, the Activity (Malva sylvestris [14]) was 17.1 MT/ha.

For CC(C)Oc1cc(-n2nc(C(C)(C)C)oc2=O)c(Cl)cc1Cl [OXADIAZON], the Activity (Malva sylvestris [15]) was 13.3 MT/ha, the Activity (Cyperus rotundus [16]) was 13.3 MT/ha and the Activity (Chenopodiastrum murale [17]) was 13.3 MT/ha. It also gave an Activity (Cyperus rotundus [18]) of 57%, an Activity (Malva sylvestris [19]) of 57% and an Activity (Chenopodiastrum murale [20]) of 57%. For the same compound, the Activity (Malva sylvestris [21]) was 10.8 MT/ha, the Activity (Cyperus rotundus [22]) was 10.8 MT/ha and the Activity (Chenopodiastrum murale [23]) was 10.8 MT/ha. The Activity (Cyperus rotundus [24]) was 2.37 MT/ha, the Activity (Malva sylvestris [25]) was 2.37 MT/ha and the Activity (Chenopodiastrum murale [26]) was 2.37 MT/ha. For the same compound, the Activity (Allium cepa [27]) was 15.69 MT/ha and the Activity (Allium cepa [28]) was 13.37 MT/ha.

Compound CN(C)C(=O)C(c1ccccc1)c1ccccc1 [DIPHENAMIDE] has an Activity (Chenopodiastrum murale [29]) of 4.79 MT/ha, an Activity (Cyperus rotundus [30]) of 4.79 MT/ha and an Activity (Malva sylvestris [31]) of 4.79 MT/ha. For the same compound, the Activity (Malva sylvestris [32]) was 21.5 MT/ha, the Activity (Chenopodiastrum murale [33]) was 21.5 MT/ha and the Activity (Allium cepa [34]) was 5.16 MT/ha. It also gave an Activity (Cyperus rotundus [35]) of 21.5 MT/ha.

With COC(=O)c1c(Cl)c(Cl)c(C(=O)OC)c(Cl)c1Cl [DACTHAL] the Activity (Malva sylvestris [36]) was 3.63 MT/ha, the Activity (Cyperus rotundus [37]) was 3.63 MT/ha and the Activity (Chenopodiastrum murale [38]) was 3.63 MT/ha. For the same compound, the Activity (Cyperus rotundus [39]) was 19 MT/ha, the Activity (Malva sylvestris [40]) was 19 MT/ha and the Activity (Chenopodiastrum murale [41]) was 19 MT/ha. It also gave an Activity (Allium cepa [42]) of 8.2 MT/ha.
